Experimental data published in article PMC10778980, “Profiling Novel Quinuclidine-Based Derivatives as Potential Anticholinesterase Drugs: Enzyme Inhibition and Effects on Cell Viability” (International Journal of Molecular Sciences, 2023).
“Also recorded” adds a separate entry of the source. Like-named read-outs stand apart in the source and are kept apart here.

Key:
HepG2 cells [1] = assay: Cytotoxicity assay (MTS) on HepG2; type: cell-based; conditions: Homo sapiens
Protocol: (§1) SH-SY5Y cells were grown in DMEM F12 (Sigma-Aldrich, St. Louis, MO, USA) supplemented with 15% (v/v) fetal bovine serum (FBS), 2 mM glutamine, and 1% (v/v) non-essential amino acids (NEAA). HepG2 cells were grown in EMEM supplemented with 10% (v/v) FBS, 2 mM glutamine, and 1% (v/v) non-essential amino acids NEAA. All media and supplements were purchased from Sigma-Aldrich, Steinheim, Germany.
(§2) The procedure followed a previously described protocol.

human BChE = target: T1, human BChE (Homo sapiens, UniProt P06276); assay: biochemical
T1 construct: Plasma was removed and used as a source of BChE; from tissue; host or cells: human blood plasma from a healthy volunteer
T1 sequence (P06276 29-602): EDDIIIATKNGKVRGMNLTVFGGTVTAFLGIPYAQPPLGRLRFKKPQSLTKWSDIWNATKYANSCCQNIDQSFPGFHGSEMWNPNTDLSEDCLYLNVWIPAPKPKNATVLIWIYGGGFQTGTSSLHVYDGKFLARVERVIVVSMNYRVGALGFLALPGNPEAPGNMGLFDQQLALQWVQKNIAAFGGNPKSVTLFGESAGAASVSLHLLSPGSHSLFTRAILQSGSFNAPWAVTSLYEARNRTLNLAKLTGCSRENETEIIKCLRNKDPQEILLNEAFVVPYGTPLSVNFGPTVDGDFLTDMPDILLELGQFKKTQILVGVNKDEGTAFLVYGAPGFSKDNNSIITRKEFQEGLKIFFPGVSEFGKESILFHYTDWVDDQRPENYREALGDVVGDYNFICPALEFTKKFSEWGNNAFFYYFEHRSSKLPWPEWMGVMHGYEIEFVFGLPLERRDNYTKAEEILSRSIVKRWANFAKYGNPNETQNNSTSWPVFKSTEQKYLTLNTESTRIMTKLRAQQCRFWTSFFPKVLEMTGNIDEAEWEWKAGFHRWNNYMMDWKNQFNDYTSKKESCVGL
Source text: (§3) Cholinesterase substrate acetylthiocholine (ATCh) and the thiol reagent 5,5′-dithiobis(2-nitrobenzoic acid) (DTNB) for the enzyme activity measurement were purchased from Sigma-Aldrich (St. Louis, MO, USA). The sources of human AChE and BChE were native erythrocytes and plasma, respectively, obtained from the blood of a healthy volunteer and in accordance with the approval of the Ethics Committee of the Institute for Medical Research and Occupational Health (approval number: 100-21/23-6). Erythrocytes and plasma were isolated from the whole blood and prepared according to a previously published procedure. Namely, venous blood was collected into a heparinized tube and centrifuged (at 4 °C, 20 min on 2500 rpm, Eppendorf centrifuge 5702R) to separate plasma from the erythrocytes. Plasma was removed and used as a source of BChE, while erythrocytes were washed twice with the 0.1 M sodium phosphate buffer, pH 7.4, in a volume corresponding to the initial volume of the whole blood. Both plasma and erythrocytes were frozen at −20 °C until use. Quinuclidine compounds were dissolved in dH2O as 10 or 100 mM; exceptionally, 3-hydroxyimino compounds with longer chains (C12−C16) were dissolved in DMSO as 100 mM solutions. Stock solutions were kept at 4 °C until use. Further dilutions were made in distilled water.
(§4) The reversible inhibition experiments followed a previously published procedure. Namely, the enzyme activity was measured in the presence of a wide range of quinuclidine compound concentrations and in the substrate range from 0.1 to 0.5 mM to confirm the type of compound binding. The activity was assayed following the Ellman’s procedure, with the modification in the wavelength used for detection of the TNB anion in the case of AChE activity measurement due to the interference of the hemoglobin, and according to Worek et al.. The assay was performed in 96-well plates on an Infinite M200PRO plate reader (Tecan Austria GmbH, Salzburg, Austria) at 25 °C. Each concentration was tested in triplicate or quadruplicate on each plate. The inhibition mixture contained 0.1 M sodium phosphate buffer, pH 7.4, enzyme (AChE or BChE), quinuclidine compound (0.2–400 μM final), DTNB (0.3 mM final), and ATCh (from 0.1 to 0.5 mM final) to start the reaction. The increase in absorbance was read at 436 nm for AChE and at 412 nm for BChE. The measured activity in the presence of compounds was corrected for the non-enzymatic hydrolysis of substrate ATCh, if detected. The reversible enzyme–quinuclidine complex dissociation constants (the inhibition constants) Ki were evaluated from the effect of the substrate concentration on the degree of inhibition according to the Hunter–Downs equation as described previously, taking into account only quinuclidine concentrations where 20–80% inhibition of the activity was observed.

SH-SY5Y cells [2] = assay: Cytotoxicity assay (MTS) on SH-SY5Y; type: cell-based; conditions: Homo sapiens
Protocol: as §1, §2

human AChE = target: T2, human AChE (Homo sapiens, UniProt P22303); assay: Reversible inhibition of AChE (Ellman's procedure, Hunter–Downs evaluation); type: biochemical; conditions: for Ki: Ki ± standard error, 0.1, 0.2, 0.35 and 0.5 mM substrate ATCh, 25 °C, pH 7.4; for Ki (AChE)/Ki (BChE): selectivity ratio
T2 construct: The sources of human AChE and BChE were native erythrocytes and plasma, respectively; from tissue; host or cells: human erythrocytes from venous blood of a healthy volunteer
T2 sequence (P22303 32-617 isoform P22303-2 limits assumed): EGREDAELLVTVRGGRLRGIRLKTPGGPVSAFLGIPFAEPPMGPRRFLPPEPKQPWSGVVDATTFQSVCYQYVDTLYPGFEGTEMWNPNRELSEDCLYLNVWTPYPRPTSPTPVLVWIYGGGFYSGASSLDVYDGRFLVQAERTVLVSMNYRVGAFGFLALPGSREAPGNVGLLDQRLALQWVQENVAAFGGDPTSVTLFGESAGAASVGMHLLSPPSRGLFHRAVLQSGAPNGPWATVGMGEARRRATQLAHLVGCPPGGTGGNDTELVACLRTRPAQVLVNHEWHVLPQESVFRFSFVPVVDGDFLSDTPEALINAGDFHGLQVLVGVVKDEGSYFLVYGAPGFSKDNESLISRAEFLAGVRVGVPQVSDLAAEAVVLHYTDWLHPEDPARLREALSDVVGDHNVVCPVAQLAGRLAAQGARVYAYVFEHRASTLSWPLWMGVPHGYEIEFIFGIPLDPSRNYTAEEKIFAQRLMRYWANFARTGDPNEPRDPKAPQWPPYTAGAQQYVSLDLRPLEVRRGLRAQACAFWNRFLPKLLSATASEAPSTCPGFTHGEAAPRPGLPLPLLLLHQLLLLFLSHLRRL
Source text: as §3, §4

SH-SY5Y cells [3] = assay: Mitochondrial membrane potential (TMRE assay) on SH-SY5Y; type: cell-based, human; conditions: 4 h exposure, LOAEL concentrations
Protocol: (§5) Human neuroblastoma SH-SY5Y (ECACC 94030304) and human hepatocyte carcinoma HepG2 (ECACC 85011430) were used to evaluate in vitro dose- and time-dependent different cell effects. The SH-SY5Y cell line was selected as it represents a well-established model for studying neuronal cells, while HepG2 hepatocytes represent a liver model as a major organ participating in the metabolism of diverse compounds [31, 61, 62]. SH-SY5Y cells were grown in DMEM F12 (Sigma-Aldrich, St. Louis, MO, USA) supplemented with 15% (v/v) fetal bovine serum (FBS), 2 mM glutamine, and 1% (v/v) non-essential amino acids (NEAA). HepG2 cells were grown in EMEM supplemented with 10% (v/v) FBS, 2 mM glutamine, and 1% (v/v) non-essential amino acids NEAA. All media and supplements were purchased from Sigma-Aldrich, Steinheim, Germany.
(§6) Mitochondrial membrane potential (ΔΨm) was determined using a cell-permeable, potential-sensitive cationic dye, tetramethylrhodamine ethyl ester perchlorate (TMRE, Cell Signaling Technology Europe, Leiden, The Netherlands). Cells were exposed for 4 h to derivatives 3–5 and 10–12. The procedure followed a previously described protocol. A concentration of 50 µM carbonyl cyanide 3-chlorophenylhydrazone (CCCP, Cell Signaling Technology Europe, Leiden, The Netherlands) was used as a positive control. Data were evaluated from at least three independent experiments (performed in duplicate) and presented as a normalized signal to the untreated control, according to the manufacturer’s calculation protocol.

HepG2 cells [4] = assay: Cell membrane integrity (LDH release) on HepG2; type: cell-based, human; conditions: HepG2, 4 h exposure, 12.5–200 µM
Protocol: as §5
(§7) Cell membrane integrity was determined after 4 h exposure to derivatives 3–5 and 10–12 by measuring the release of the intracellular lactate dehydrogenase (LDH), and the procedure followed a previously described protocol using The CytoTox-ONE™ Homogeneous Membrane Integrity Assay (Promega, Madison, WI, USA). Triton X-100 at a final concentration of 0.18% (v/v) (stock of 9% in water; Sigma-Aldrich, Steinheim, Germany) was used as a positive control to determine the maximal LDH release. Data were taken from at least two independent experiments (each treatment performed in duplicate) and plotted as a percentage of LDH release compared to the determined maximal LDH release, according to the manufacturer’s calculation protocol.

SH-SY5Y cells [5] = assay: Cell membrane integrity (LDH release) on SH-SY5Y; type: cell-based, human; conditions: 4 h exposure, 12.5–200 µM
Protocol: as §5, §7

HepG2 cells [6] = assay: Mitochondrial membrane potential (TMRE assay) on HepG2; type: cell-based, human; conditions: HepG2, 4 h exposure, LOAEL concentrations
Protocol: as §5, §6

[7] = HepG2, read-out: IC50 ± SE HepG2 1 h, 1 h exposure
[8] = HepG2, 4 h exposure, read-out: IC50 ± SE HepG2 4 h
[9] = HepG2, 24 h exposure, read-out: IC50 ± SE HepG2 24 h
[10] = Ki ± standard error, 0.1, 0.2, 0.35 and 0.5 mM substrate ATCh, 25 °C, pH 7.4, read-out: Ki BChE
[11] = 4 h exposure, read-out: IC50 ± SE SH-SY5Y 4 h
[12] = 24 h exposure, read-out: IC50 ± SE SH-SY5Y 24 h
[13] = read-out: IC50 ± SE SH-SY5Y 1 h, 1 h exposure

| SMILES | IC50 (HepG2 cells [1]; [7]) | IC50 (HepG2 cells [1]; [8]) | IC50 (HepG2 cells [1]; [9]) | Ki (human BChE; [10]) | IC50 (SH-SY5Y cells [2]; [11]) | IC50 (SH-SY5Y cells [2]; [12]) | IC50 (SH-SY5Y cells [2]; [13]) | Ki (human AChE) | Ki (AChE)/Ki (BChE) (human AChE) | times less efficient than donepezil (human AChE; AChE Ki compared to donepezil) | Mitochondrial membrane potential (ΔΨm) (SH-SY5Y cells [3]) | LDH release (HepG2 cells [4]) | LDH release (SH-SY5Y cells [5]) | Mitochondrial membrane potential (ΔΨm) (HepG2 cells [6]) | Ki (human BChE) |
| --- | --- | --- | --- | --- | --- | --- | --- | --- | --- | --- | --- | --- | --- | --- | --- |
| ON=C1C[N+]2(CCCCCCCC[N+]34CCC(CC3)C(=NO)C4)CCC1CC2 [Compound 13, 1,1’-(octano)bis(3-hydroxyiminoquinuclidinium bromide)] | ≥ 800 µM | ≥ 800 µM | ≥ 800 µM | 3.4 ± 0.2 µM | ≥ 800 µM | ≥ 800 µM | ≥ 800 µM | 1.8 ± 0.07 µM | 0.5 |  |  |  |  |  |  |
| ON=C1C[N+]2(CCCCCCCCCC[N+]34CCC(CC3)C(=NO)C4)CCC1CC2 [Compound 14, 1,1’-(decano)bis(3-hydroxyiminoquinuclidinium bromide)] | ≥ 800 µM | ≥ 800 µM | ≥ 800 µM | 1.2 ± 0.06 µM | ≥ 800 µM | ≥ 800 µM | ≥ 800 µM | 0.26 ± 0.02 µM | 0.2 | around 60 |  |  |  |  |  |
| CCCCCCCC[N+]12CCC(CC1)C(O)C2 (centres unmarked) [Compound 1] | ≥ 800 µM | ≥ 800 µM | ≥ 800 µM | 85.1 ± 22.1 µM | ≥ 800 µM | ≥ 800 µM | ≥ 800 µM | 156 ± 26.1 µM | 1.8 |  |  |  |  |  |  |
| CCCCCCCCCCCC[N+]12CCC(CC1)C(O)C2 (centres unmarked) [Compound 3] | 135 ± 1 µM | 81 ± 1 µM | 66 ± 1 µM | 9 ± 0.8 µM | 74 ± 1 µM | 56 ± 1 µM | 145 ± 1 µM | 13.2 ± 0.6 µM | 1.5 |  | decrease in the mitochondrial membrane potential | strongest effect; also recorded: significant LDH release | significant LDH release | decrease in the mitochondrial membrane potential |  |
| OC1C[N+]2(CCCCCCCCCC[N+]34CCC(CC3)C(O)C4)CCC1CC2 (centres unmarked) [Compound 7, 1,1’-(decano)bis(3-hydroxyquinuclidinium bromide)] | ≥ 800 µM | ≥ 800 µM | ≥ 800 µM | 1.6 ± 0.2 µM | ≥ 800 µM | ≥ 800 µM | ≥ 800 µM | 0.52 ± 0.05 µM | 0.3 |  |  |  |  |  |  |
| CCCCCCCCCC[N+]12CCC(CC1)C(=NO)C2.[Br-] [Compound 9, 1-decyl-3-hydroxyiminoquinuclidinium bromide] | ≥ 800 µM | ≥ 800 µM | ≥ 800 µM |  | ≥ 800 µM | ≥ 800 µM | ≥ 800 µM | 23.8 ± 0.8 µM | 4.6 |  |  |  |  |  | 5.2 ± 1.1 µM |
